Laboratory results from PubChem BioAssay AID540268 (Broad Institute, 2011).
Values joined by “and” are separate entries in the source; they are usually repeats but may differ in a detail not shown here. Equal values may be shown once. Active and inactive are the calls of the source. How the calls were made is not given here.

Experiment: growth inhibition of yeast carrying parasite Hsp90, dose response, anti-malarial Hsp90 inhibitor project, ATP luminescence, 48 h, cherry-picked samples (AID 540268);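 on activity change, negative = inhibition: 0% = neutral control wells and -100% = positive control wells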
Conditions: yeast expressing the parasite Hsp90, ATP luminescence; for activity change, negative = inhibition: at 26 µM (top of the series)

| SMILES | AC50 | activity change, negative = inhibition |
| --- | --- | --- |
| O=C(Oc1ccc(Cl)c2cccnc12)c1cccnc1 | 7.85 µM |  |
| O=C(O)c1cccc(N/N=C/c2cc(Br)cc(Br)c2O)c1 | 1.15 µM |  |
| COc1ccc(/C=C2/CCC(CN3CCOCC3)C2=O)cc1 (stereo unspecified) | 0.751 µM |  |
| N/C(Cc1ccc(Cl)cc1Cl)=N\OC(=O)c1cccs1 | 6.39 µM |  |
| CC1(C(=O)c2ccccc2)C2c3c(ccc4ccccc34)OC(=O)C21C(=O)N1CCOCC1 (stereo unspecified) | 4.16 µM |  |
| Oc1ccc(C2=NN(c3ccccc3)C(c3ccc(F)cc3)C2)cc1 (stereo unspecified) | 3.35 µM |  |
| CCCCCCCCCCCCCCCC[N+](C)(C)Cc1ccc(F)cc1 | 0.213 µM |  |
| CCOC(=O)c1ccc(NC(=O)CC2C(=O)OCCN2CC)cc1 (stereo unspecified) | 4.28 µM |  |
| Clc1ccc(C(c2ccc(Cl)cc2)n2cc[n+](CC(OCc3ccc(Cl)cc3Cl)c3ccc(Cl)cc3Cl)c2)cc1 (stereo unspecified) | 5.47 µM |  |
| Nc1ccccc1C#CC(=O)c1ccccc1 | 7.65 µM |  |
| CC(=NNC(=S)N1CCN(c2ccccn2)CC1)c1nccs1 | 2.58 µM |  |
| CC(=O)N(C(C)=O)N1C(=O)/C(=C/c2ccc(Cl)cc2)SC1=S | 3.28 µM |  |
| C(=NN=C1c2ccccc2-c2ccccc21)c1c[nH]c2ccccc12 | 2.72 µM |  |
| Cc1ccc(/C=C/C(=O)c2ccccc(=O)c2O)c(C)c1 | 1.93 µM |  |
| Cc1ccc(OCC(=O)NNC(=S)NC(=O)C2CC2)c(C)c1 | 4.16 µM |  |
| CC(=NNC(=S)N1CCCCCC1)c1ccccn1 | 3.89 µM |  |
| O=[N+]([O-])c1ccc(C=Nc2ccc(Cl)cc2Cl)s1 | 8.6 µM |  |
| Cc1ccc2c(c1C)-c1c(ccc(C)c1C)C(=O)C2=O | 2.67 µM |  |
| O=C(c1ccc(-c2ccccc2)c(F)c1)C1CCCN(C(=O)c2cncs2)C1 (stereo unspecified) | 8.42 µM |  |
| CCCC(=O)NC(c1cccs1)c1cc(Cl)c2cccnc2c1O (stereo unspecified) | 1.58 µM |  |
| [O-][n+]1cccc2c(Br)cc(Br)c(O)c21 | 3.55 µM |  |

| SMILES | AC50 | activity change, negative = inhibition |
| --- | --- | --- |
| COc1cc2cc(C(=O)N3CC(COS(C)(=O)=O)c4ccc(O)cc43)[nH]c2c(OC)c1OC (stereo unspecified) | 1.55 µM |  |
| N/C(=N\OC(=O)c1ccc2ccccc2c1)c1ccccc1Cl | 4.46 µM |  |
| O=c1c2ccccc2sn1-c1ccccc1 | 9.19 µM |  |
| O=C(NCCCCc1ccccc1)c1ccc(Br)cc1 | 4.42 µM |  |
| Oc1cc(Cl)c(Cl)c(Cl)c1Cl | 1.7 µM |  |
| CC(C)C(=O)NC(c1ccc(Cl)cc1Cl)c1ccc2cccnc2c1O (stereo unspecified) | 15.3 µM |  |
| O=C(/C(=C/c1ccc(Cl)cc1)c1nc2ccccc2[nH]1)c1ccccc1 | 7.04 µM |  |
| CC(NC(=O)c1ccc(Br)cc1)c1ccc2c(c1)CCCC2 (stereo unspecified) | 1.37 µM |  |
| CCCCCCOc1ccc(N2C(=O)CC(N3CCC(C(=O)OCC)CC3)C2=O)cc1 (stereo unspecified) | 4.38 µM |  |
| CC(C)OC(=O)c1ccc(NCc2cc(O)ccc2O)cc1Cl | 24.1 µM |  |
| C=CCc1c(C)c(C#N)c2nc3ccccc3n2c1NCCN(C)C | 4.58 µM |  |
| CCOc1ccccc1-c1c2cc(O)c(=O)cc-2oc2cc(O)c(O)cc12 | 4.21 µM |  |
| CSc1nc2cc(Oc3cccc(Cl)c3Cl)c(Cl)cc2[nH]1 | 6.41 µM |  |
| CN(C)/C=C/C(=O)c1ccc(Oc2ccccc2)cc1 | 3.92 µM |  |
| CCCCCCCCCCCCCCCC[n+]1ccccc1 | 4.03 µM and 3.43 µM |  |
| Cc1cc2cc(CNC(=O)c3ccc(C)c([N+](=O)[O-])c3)ccc2[nH]1 | 8.29 µM |  |
| O=C(Nc1ccc(F)cc1)c1nc(S(=O)(=O)Cc2ccccc2)ncc1Cl | 5.68 µM |  |
| Cc1cc(Br)c2c(c1)/C(=C/C(=O)c1cccs1)C(=O)N2 |  | -12.3% (inactive) |
| O=C(NCc1ccc2c(c1)OCO2)c1ccc(Br)cc1 | 4.46 µM |  |
| CC[C@@H](C)[C@H](NC(=O)OC(C)(C)C)c1nnc(S(=O)(=O)Cc2cc(C)ccc2C)o1 | 5.46 µM |  |
| O=Nc1c(O)c2ccccc2c2ccccc12 | 1.57 µM |  |

| SMILES | AC50 | activity change, negative = inhibition |
| --- | --- | --- |
| Cc1cccc(N=C2c3cc([N+](=O)[O-])ccc3-c3c2cc([N+](=O)[O-])cc3[N+](=O)[O-])c1 | 9.02 µM |  |
| Cc1ccc(S(=O)(=O)Nc2ccc3cc([N+](=O)[O-])ccc3c2[N+](=O)[O-])cc1 | 11.9 µM |  |
| CC(C)=CCc1cc([C@@H]2COc3c(ccc4c3C=CC(C)(C)O4)C2)c(O)cc1O | 0.265 µM |  |
| On1ccccc1=S | < 0.195 µM |  |
| COc1ccc(NC(=O)c2cc([N+](=O)[O-])ccc2O)cc1 | 5.24 µM |  |
| O=C1C(F)=CC(COC(c2ccccc2)(c2ccccc2)c2ccccc2)OC1n1cc(F)c(=O)[nH]c1=O (stereo unspecified) | 0.718 µM |  |
| CC(=O)NC(c1ccc2ccccc2c1)c1ccc2cccnc2c1O (stereo unspecified) | 1.75 µM |  |
| CC1CCN(c2nc(Cl)nc(Nc3ccc([N+](=O)[O-])cc3)n2)CC1 | 24 µM |  |
| Oc1ccc(N=Nc2c(O)ccc3ccccc23)cc1 | 7.02 µM |  |
| CCc1ccc2c(c1)/C(=C/C(=O)c1cccs1)C(=O)N2 | 4.7 µM |  |
| Cn1c(SCC(=O)N/N=C/c2ccc([N+](=O)[O-])s2)nnc1-c1ccc(Cl)cc1 | 2.3 µM |  |
| Cc1ccc(C(=O)C(SC(C)(C)C)n2cncn2)cc1 (stereo unspecified) | 4.25 µM |  |
| O=C(CCN1C(=O)/C(=C/c2cccs2)SC1=S)NC1=NCCS1 |  | 60.4% (inactive) |
| O=C1CC(c2ccccc2)CC(O)=C1C=Nc1cccc(Cl)c1 (stereo unspecified) | 3.26 µM |  |
| O=S1(=O)Nc2c(ccc3cccnc23)-c2ccccc21 | 0.894 µM |  |
| OC(CNCCC1C=Nc2ccccc21)Cn1c2ccc(Cl)cc2c2cc(Cl)ccc21 (stereo unspecified) | 7.56 µM |  |
| O=C1/C(=C\c2ccc([N+](=O)[O-])cc2)CS(=O)(=O)C/C1=C/c1ccc([N+](=O)[O-])cc1 | 0.337 µM |  |
| Oc1cc(Cl)ccc1Oc1ccc(Cl)cc1Cl | 7.54 µM |  |
| CCCCCCCCC/C(=N\O)c1ccccn1 | 3.65 µM |  |
| C[C@@]12C(=O)Nc3ccc(Cl)cc3C(=O)N1[C@H]1c3ccccc3OC[C@@H]1[C@@H]2c1ccccc1 | 0.487 µM |  |
| CC1=NN(c2nc3ccccc3[nH]2)C(=O)/C1=C/N(C)C | 2.23 µM |  |

| SMILES | AC50 | activity change, negative = inhibition |
| --- | --- | --- |
| CC(C)(C)c1nn(-c2ccccc2)c2[nH]c(=O)c(CNc3ccc4c(c3)OCCO4)cc12 |  | -106% (inactive) |
| Cc1cccc(C(=O)NC(=S)NNC(=O)Cc2ccccc2)c1 | 4.34 µM |  |
| COc1ccc(-c2cc(C(=O)N3CCN(c4ccccc4F)CC3)c3ccccc3n2)c(OC)c1 | 4.09 µM |  |
| CCCCCCCCCCCCCCCC(O)C[N+](C)(C)CCO (stereo unspecified) | 6.61 µM |  |
| O=C(NN1C(=O)/C(=C\c2ccc(O)c([N+](=O)[O-])c2)SC1=S)c1ccccc1Cl | 5.92 µM |  |
| CCOC(=O)c1cc([N+](=O)[O-])c([N+](=O)[O-])cc1NC(C)=O | 2.08 µM |  |
| Cc1ccccc1CS(=O)(=O)c1nnc([C@H](Cc2ccccc2)NC(=O)OC(C)(C)C)o1 | 17.1 µM |  |
| COc1ccc2oc(/C=C/N(C)C)c(C(=O)c3ccc(Cl)cc3)c2c1 | 3.78 µM |  |
| Cc1ccc(N=Cc2cc(Cc3ccccc3Cl)cc([N+](=O)[O-])c2O)c(O)c1 | 0.216 µM |  |
| CC(=NNC(=S)Nc1cccc(C)c1)c1ccccn1 | 4.3 µM |  |
| CC(=NNC(=S)N1CC2CCC(CC2)C1)c1nccs1 | 25.7 µM |  |
| O=[N+]([O-])/C=C/c1ccc2c(ccn2Cc2ccccc2)c1 | 4.35 µM |  |
| O=C1c2cc(F)ccc2-n2c1nc1ccccc1c2=O | 2.96 µM |  |
| COc1ccc(C(=O)Nc2cc(C(=O)c3ccccc3)c(C)oc2=O)cc1 |  | 36.8% (inactive) |
| O=C(N/N=C/c1sc2ccccc2c1O)c1cccc2ccccc12 | 17 µM |  |
| Cc1ccc(NN2C(=O)C=C(c3ccc(Cl)cc3)C2=O)cc1 | < 0.195 µM |  |
| COc1ccc(C(=O)O/N=C2\C(=O)N(C)c3ccccc32)cc1 | < 0.195 µM |  |
| O=C(c1cccs1)c1no[n+]([O-])c1C(=O)c1cccs1 | 2.18 µM |  |
